Paper PMC4492579, “Potent and Selective Triazole-Based Inhibitors of the Hypoxia-Inducible Factor Prolyl-Hydroxylases with Activity in the Murine Brain” (PLoS ONE, 2015)
Where two headings read alike, the source gives them in different places.

Tests used:
FBXL11 (KDM2A) = target: T1, FBXL11 (KDM2A) (Homo sapiens, UniProt Q9Y2K7); parameters: method as in PMID 26682036; conditions: cited from earlier work
T1 sequence (Q9Y2K7 1-1162): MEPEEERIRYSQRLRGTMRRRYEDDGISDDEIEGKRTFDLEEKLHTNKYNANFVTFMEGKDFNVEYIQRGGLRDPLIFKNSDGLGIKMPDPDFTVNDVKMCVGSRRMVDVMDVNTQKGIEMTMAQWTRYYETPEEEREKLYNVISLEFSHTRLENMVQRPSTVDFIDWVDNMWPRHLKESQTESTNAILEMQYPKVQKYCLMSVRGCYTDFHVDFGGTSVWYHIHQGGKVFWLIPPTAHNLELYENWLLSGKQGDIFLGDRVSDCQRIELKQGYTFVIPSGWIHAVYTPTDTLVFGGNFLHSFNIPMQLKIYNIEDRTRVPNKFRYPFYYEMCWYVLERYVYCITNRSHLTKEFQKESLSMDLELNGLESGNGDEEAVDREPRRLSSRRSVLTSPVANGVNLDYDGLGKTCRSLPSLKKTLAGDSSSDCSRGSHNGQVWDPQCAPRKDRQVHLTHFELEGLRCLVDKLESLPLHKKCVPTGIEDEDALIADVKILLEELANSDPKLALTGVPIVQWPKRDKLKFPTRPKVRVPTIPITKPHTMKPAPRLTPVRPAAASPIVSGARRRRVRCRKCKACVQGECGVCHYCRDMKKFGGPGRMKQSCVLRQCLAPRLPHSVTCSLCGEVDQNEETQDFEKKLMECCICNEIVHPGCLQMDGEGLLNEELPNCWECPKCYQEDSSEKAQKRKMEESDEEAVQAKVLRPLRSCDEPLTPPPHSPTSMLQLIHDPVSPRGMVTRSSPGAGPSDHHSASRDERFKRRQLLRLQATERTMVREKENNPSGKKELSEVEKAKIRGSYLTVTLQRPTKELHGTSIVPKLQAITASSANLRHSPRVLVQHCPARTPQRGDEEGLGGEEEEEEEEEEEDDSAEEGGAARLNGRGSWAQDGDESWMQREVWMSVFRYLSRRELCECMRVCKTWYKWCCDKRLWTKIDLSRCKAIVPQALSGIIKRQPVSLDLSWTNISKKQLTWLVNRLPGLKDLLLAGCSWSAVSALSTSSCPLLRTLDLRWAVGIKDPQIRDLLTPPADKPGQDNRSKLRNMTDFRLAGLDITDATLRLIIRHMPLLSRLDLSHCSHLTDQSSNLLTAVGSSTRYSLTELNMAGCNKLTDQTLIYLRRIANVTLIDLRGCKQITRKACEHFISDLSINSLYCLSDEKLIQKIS

JMJD1A (KDM3A) [1] = target: T2, JMJD1A (KDM3A) (Homo sapiens, UniProt Q9Y4C1); parameters: method as in PMID 26682036; conditions: cited from earlier work
T2 sequence (Q9Y4C1 1-1321): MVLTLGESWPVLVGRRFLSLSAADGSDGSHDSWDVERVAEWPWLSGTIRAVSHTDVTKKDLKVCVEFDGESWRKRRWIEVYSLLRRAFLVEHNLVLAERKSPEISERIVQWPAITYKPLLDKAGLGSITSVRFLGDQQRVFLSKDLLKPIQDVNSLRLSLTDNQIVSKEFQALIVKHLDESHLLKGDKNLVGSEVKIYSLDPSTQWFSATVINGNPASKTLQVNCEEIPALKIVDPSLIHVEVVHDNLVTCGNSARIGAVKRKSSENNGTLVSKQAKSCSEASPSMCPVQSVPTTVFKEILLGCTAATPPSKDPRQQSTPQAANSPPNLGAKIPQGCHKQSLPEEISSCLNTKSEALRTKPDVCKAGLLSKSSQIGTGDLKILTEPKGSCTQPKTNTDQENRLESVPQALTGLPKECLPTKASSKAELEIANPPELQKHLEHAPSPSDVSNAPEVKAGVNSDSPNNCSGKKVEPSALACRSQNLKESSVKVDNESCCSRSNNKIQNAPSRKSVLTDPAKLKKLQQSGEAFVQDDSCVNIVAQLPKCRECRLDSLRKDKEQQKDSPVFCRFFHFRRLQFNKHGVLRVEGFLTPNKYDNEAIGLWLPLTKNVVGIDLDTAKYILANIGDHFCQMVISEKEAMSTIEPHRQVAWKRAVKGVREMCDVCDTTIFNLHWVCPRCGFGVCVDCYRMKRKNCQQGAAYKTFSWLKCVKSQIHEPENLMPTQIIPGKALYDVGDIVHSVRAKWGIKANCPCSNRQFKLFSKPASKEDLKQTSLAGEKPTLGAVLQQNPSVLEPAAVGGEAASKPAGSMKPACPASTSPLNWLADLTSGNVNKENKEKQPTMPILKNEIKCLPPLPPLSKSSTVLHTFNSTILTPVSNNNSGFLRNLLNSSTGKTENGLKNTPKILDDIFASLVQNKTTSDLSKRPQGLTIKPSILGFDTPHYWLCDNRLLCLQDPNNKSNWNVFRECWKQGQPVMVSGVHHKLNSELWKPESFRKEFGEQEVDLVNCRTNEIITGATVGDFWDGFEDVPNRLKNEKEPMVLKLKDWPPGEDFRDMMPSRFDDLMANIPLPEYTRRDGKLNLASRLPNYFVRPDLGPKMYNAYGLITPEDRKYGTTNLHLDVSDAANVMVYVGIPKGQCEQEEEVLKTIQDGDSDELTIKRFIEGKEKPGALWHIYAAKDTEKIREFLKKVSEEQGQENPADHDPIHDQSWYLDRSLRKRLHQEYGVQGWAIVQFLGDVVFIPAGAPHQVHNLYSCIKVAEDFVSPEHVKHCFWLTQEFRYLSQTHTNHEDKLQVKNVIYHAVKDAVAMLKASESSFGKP

JMJD1A (KDM3A) [2] = target: T2, JMJD1A (KDM3A); assay: KDM AlphaScreen assay, JMJD1A
Protocol: Inhibition assays for PHD2 (AlphaScreen) [9], the KDMs (AlphaScreen) [17], BBOX [18] and FTO [19] were carried out as previously described. […] IC50 values were calculated using nonlinear regression with normalized dose-response fit using GraphPad Prism 5.

SMILES | IC50 (FBXL11 (KDM2A)) [µM] | IC50 (JMJD1A (KDM3A) [1]) [µM] | IC50 (JMJD1A (KDM3A) [2]) [µM]
O=C(O)CNC(=O)c1c(O)c2ccccc2n(Cc2ccccc2)c1=O [IOX2] | 52 | > 100 | 
CC(C)(C)OC(=O)c1ccc(-n2[nH]cc(-n3ccnn3)c2=O)nc1 [IOX4, t-Butyl 6-(5-oxo-4-(1H-1,2,3-triazol-1-yl)-2,5-dihydro-1H-pyrazol-1-yl)nicotinate] |  |  | > 20
